From patent US20080027145A1, “Therapeutic Molecules and Methods for Generating and/or Selecting Same” (priority 2004, published 2008)
Entries after “also recorded” stand apart in the source; their conditions may differ. Like-named read-outs stand apart in the source and are kept apart here. Ends that are not written are not given here.

Key:
[1] = test system: pro-survival proteins (Bcl-2, Bcl-xL, Bcl-w, Mcl-1, A1); test: Solution competition assay, statements spanning several pro-survival proteins; assay type: binding, human and mouse; settings: for binding preference among pro-survival proteins: Bcl-2, Bcl-xL, Bcl-w, Mcl-1, A1
Protocol: (§1) The relative affinities of BH3 peptides for pro-survival Bcl-2 proteins were assessed by comparing their abilities to compete with immobilized ^wtBimBH3 peptide for binding to Bcl-2-like proteins (Wilson-Annan et al., Supra). A fixed sub-saturating amount (10 nM) of a pro-survival Bcl-2 protein was incubated with varying amounts of competitor BH3 peptide in HBS for >2 hr on ice. The mixtures were then injected over a sensor chip containing a channel bearing mouse ^wtBimBH3 and a control channel with mouse ^4EBimBH3 immobilized. The baseline response (control channel) was subtracted to obtain the absolute binding response. Taking the response for the pro-survival protein alone as the maximal response (100%), the relative residual binding (%) in the presence of increasing amounts of competitor peptides at a given injection time point (430 s) was then calculated. […] Theoretically, IC50=[A]/2+KD, where [A] is the analyte concentration.
(§2) Some of recombinant proteins (Bcl-2, Bcl-xL, A1) studied contain cysteine residues but the behavior of Bcl-2 or Bcl-xL was not affected by dithiothreitol (DTT).
(§3) To assess if other BH3 peptides bind pro-survival proteins similarly, we directly compared their binding affinities in solution using a competitive binding assay. In such assays, the quality and absolute quantity of target proteins are less critical than in direct binding, and solution binding precludes the steric hindrance encountered with some immobilized peptides. FIG. 1C illustrates the approach: pre-incubation of Bcl-xL in solution with increasing amounts of BikBH3 reduced its binding to ^wtBimBH3 (FIG. 1D). From the attenuation in binding, the IC50 (competitor peptide concentration that halves binding) of BikBH3 can be calculated (FIG. 1E). As the IC50 values reflect relative binding affinities (see Experimental Procedures), we used this assay to compare the binding affinities of eight BH3 peptides (Table 3) to the five pro-survival proteins. […] Their binding properties fell into several classes (FIG. 2B and FIG. 4). […] Contrary to the prevailing view, the pro-survival proteins also had unique patterns for BH3 binding: Bcl-xL behaved like Bcl-w, with Bcl-2 more distinct, whereas Mcl-1 and A1 formed a separate group (FIG. 2B).

[2] = test system: mouse embryonic fibroblasts (MEFs); test: Killing of MEFs after retroviral expression, viability 24 hours after infection; assay type: cell-based; settings: retroviral expression, 24 hours after infection
Protocol: FIG. 7 is a graphical representation showing that BH3-only proteins that bind selective targets have weak killing activity. (A) The affinities of BH3-only peptides for pro-survival proteins (tabulated in FIG. 3A) were inversely plotted to facilitate comparison of the patterns of BH3 binding. […] Immortalized 3T9 MEFs were infected with retroviruses expressing only GFP (control), or one of the BH3-only proteins and GFP. The viability of the infected (GFP^+ve) cells was determined by PI exclusion 24 hours after infection. The histograms represent means±1SD of at least 3 experiments. […] The filter was probed with a rat monoclonal anti-FLAG antibody. *Degradation product of Mcl-1. […] Viability of MEFs infected with retroviruses encoding the indicated proteins (GFP^+ve) was analyzed 24 hours after infection. The histograms represent means±1SD of at least 3 experiments. (E) Long-term survival of MEFs infected with BH3 expressing retroviruses. One hundred retrovirally-infected cells were plated and the absolute number of GFP^+ve colonies formed after 6 days scored. […] The data represent the average number of GFP^+ve colonies formed±1SD from at least 3 experiments. To assess the biological relevance of the selective binding, retroviral delivery was used to compare the ability of different BH3-only proteins to kill wild-type mouse embryonic fibroblasts (MEFs). To monitor expression of the introduced gene, a vector (pMIG) in which its expression is coupled via an internal ribosomal entry site (IRES) to that of green fluorescent protein (GFP) was used (Van Parijs et al., Immunity 11:281-288, 1999). The cells were efficiently infected (>90%) and the introduced BH3-only proteins were comparably expressed. Viability of the infected (GFP^+ve) cells was scored 24 hours after infection (FIGS. 7A, 7B) and in long-term colony assays (FIG. 7E). […] Thus, the neutralization of Mcl-1 by Noxa should be complemented by co-expression of a BadBH3 to neutralize Bcl-2 and Bcl-xL in MEFs (FIG. 8A).

[3] = test system: mouse embryonic fibroblasts (MEFs); test: Long-term colony assay of retrovirally infected MEFs; assay type: cell-based; settings: colonies after 6 days
Protocol: FIG. 7 is a graphical representation showing that BH3-only proteins that bind selective targets have weak killing activity. (A) The affinities of BH3-only peptides for pro-survival proteins (tabulated in FIG. 3A) were inversely plotted to facilitate comparison of the patterns of BH3 binding. […] Immortalized 3T9 MEFs were infected with retroviruses expressing only GFP (control), or one of the BH3-only proteins and GFP. The viability of the infected (GFP^+ve) cells was determined by PI exclusion 24 hours after infection. The histograms represent means±1SD of at least 3 experiments. […] The filter was probed with a rat monoclonal anti-FLAG antibody. *Degradation product of Mcl-1. […] Viability of MEFs infected with retroviruses encoding the indicated proteins (GFP^+ve) was analyzed 24 hours after infection. The histograms represent means±1SD of at least 3 experiments. (E) Long-term survival of MEFs infected with BH3 expressing retroviruses. One hundred retrovirally-infected cells were plated and the absolute number of GFP^+ve colonies formed after 6 days scored. […] The data represent the average number of GFP^+ve colonies formed±1SD from at least 3 experiments. […] Viability of the infected (GFP^+ve) cells was scored 24 hours after infection (FIGS. 7A, 7B) and in long-term colony assays (FIG. 7E).

[4] = target: T1, Bcl-2 (Homo sapiens, UniProt P10415); test: Solution competition assay (competition with immobilized wtBimBH3, biosensor); assay type: binding; settings: for binding to Bcl-2: Noxa mutant peptides
T1 construct: Human Bcl-2 (Acc. no. NP_000624; residues 1-217); made in house
Protocol: as §1, §2, §3

[5] = target: T2, Bcl-xL (Homo sapiens, UniProt Q07817); test: as above; assay type: binding; settings: for fold tighter than wild-type peptide: IC50 ratio to wild-type Noxa BH3; for increase in binding to Bcl-xL: versus wt NoxaBH3
T2 construct: Human Bcl-xL (Acc. no. NP_612815; residues 1-209); GST (N, cleaved yes); made in house
Protocol: as §1, §2, §3

[6] = target: T3, Mcl-1 (Mus musculus, UniProt P97287); test: as above; assay type: binding; settings: versus wt NoxaBH3
T3 construct: mouse Mcl-1 (Acc. no. NP_031588; residues 152-308); GST (N, cleaved yes); made in house
Protocol: as §1, §2, §3

[7] = target: T4, A1 ΔC20 (Mus musculus, UniProt Q07440); test: Direct binding to immobilized BH3 peptide, Biacore biosensor; settings: BadBH3 or NoxaBH3 immobilized chip
T4 construct: mouse A1 (Acc. no. NP_033872; residues 1-152); GST (N, cleaved yes); made in house
T4 sequence (Q07440 1-152): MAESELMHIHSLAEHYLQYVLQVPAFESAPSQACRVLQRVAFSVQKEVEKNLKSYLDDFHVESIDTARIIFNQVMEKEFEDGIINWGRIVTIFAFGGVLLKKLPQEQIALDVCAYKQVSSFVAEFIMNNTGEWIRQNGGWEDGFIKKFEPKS
Protocol: (§4) Recombinant human Bcl-xL ΔC24, mouse Mcl-1 ΔN151 ΔC23 and mouse A1 ΔC20 were expressed as GST fusion proteins and cleaved off Glutathione Sepharose columns as described (Day et al., Cell Death Differ 6:1125-1132, 1999; Hinds et al., EMBO J 22:1497-1507, 2003).
(§5) Affinity measurements were performed at room temperature on a Biacore 3000 biosensor (Biacore) with HBS (10 mM HEPES pH 7.2, 150 mM NaCl, 3.4 mM EDTA, 0.005% Tween 20) as the running buffer. Mouse 26-mer ^wtBimBH3, ^4EBimBH3 mutant, BadBH3, NoxaBH3 or control irrelevant peptides were immobilized onto CM5 sensor chips using amine-coupling chemistry (Wilson-Annan et al., Supra). To assess the binding affinities of pro-survival Bcl-2-like proteins for BimBH3 directly, the proteins were directly injected into the sensor chip at 20 μl/min. Residual bound proteins were desorbed with 50 mM NaOH or 6 M GuHCl (pH 7.2), followed by two washes with running buffer. Binding kinetics were derived from sensorgrams, following subtraction of baseline responses, using BIA evaluation software (version 3, Biacore) (Wilson-Annan et al., Supra).
(§6) The binding constants of the pro-survival molecules for ^wtBimBH3, immobilized on sensor chip, were determined using biosensor experiments as described in Hinds et al., Supra; Wilson-Annan et al., Supra.

[8] = target: T5, Mcl-1 ΔN151 ΔC23 (Mus musculus, UniProt P97287); test: as above; settings: BadBH3 or NoxaBH3 immobilized chip
T5 construct: mouse Mcl-1 (Acc. no. NP_031588; residues 152-308); GST (N, cleaved yes); made in house
Protocol: as §4, §5, §6

[9] = target: T6, Bcl-w (Homo sapiens, UniProt Q92843, A128E/C29S); test: Solution competition assay (competition with immobilized wtBimBH3, biosensor); assay type: binding
T6 construct: human Bcl-w (Acc. no. NP_004041; residues 1-164; C29S A128E); made in house
T6 sequence (Q92843 1-164 C29S/A128E): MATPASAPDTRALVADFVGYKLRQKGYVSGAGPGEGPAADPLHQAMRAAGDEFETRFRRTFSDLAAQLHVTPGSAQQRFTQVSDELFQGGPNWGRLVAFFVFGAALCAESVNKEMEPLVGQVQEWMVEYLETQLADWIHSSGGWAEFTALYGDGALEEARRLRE
Protocol: as §1, §2, §3

[10] = competitor peptide vs immobilized wtBimBH3, read-out: IC50 for Bcl-xL

T2 sequence (Q07817 1-209): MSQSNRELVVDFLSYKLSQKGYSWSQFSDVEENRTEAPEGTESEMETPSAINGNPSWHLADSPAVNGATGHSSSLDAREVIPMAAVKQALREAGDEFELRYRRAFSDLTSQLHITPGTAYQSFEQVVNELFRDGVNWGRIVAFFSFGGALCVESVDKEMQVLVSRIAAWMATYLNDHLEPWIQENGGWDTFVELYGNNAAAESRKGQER
T1 sequence (P10415 1-217): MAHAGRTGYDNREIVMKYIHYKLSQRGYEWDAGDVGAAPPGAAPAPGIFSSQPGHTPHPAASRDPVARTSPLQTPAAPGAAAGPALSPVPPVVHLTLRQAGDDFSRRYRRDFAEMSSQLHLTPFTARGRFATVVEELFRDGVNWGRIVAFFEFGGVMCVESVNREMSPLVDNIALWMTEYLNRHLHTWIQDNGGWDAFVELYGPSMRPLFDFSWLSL
T5 sequence (P97287 152-308): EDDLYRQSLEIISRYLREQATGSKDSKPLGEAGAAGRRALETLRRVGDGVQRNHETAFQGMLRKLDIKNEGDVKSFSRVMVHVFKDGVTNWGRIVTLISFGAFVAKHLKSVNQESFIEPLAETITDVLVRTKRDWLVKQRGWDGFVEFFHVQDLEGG
T3 sequence (P97287 152-308): as above

“BidBH3: human Bid BH3 peptide residues 81-104, DIIRNIARHLAQVGDSMDRSIPPG” was tested, and the “binding preference among pro-survival proteins” value [1] was “preferred Bcl-xL, Bcl-w and A1 over Bcl-2 or Mcl-1”.

In the case of “BikBH3: human Bik BH3 peptide residues 51-75, MEGSDALALRLACIGDEMDVSLRAP”, the “binding preference among pro-survival proteins” value [1] is reported as “preferred Bcl-xL, Bcl-w and A1 over Bcl-2 or Mcl-1”.

With “Bims: Bim isoform, the most potent, expressed from retrovirus in MEFs” the “killing of MEFs” value [2] was “soon died” and the “long-term survival, GFP+ve colonies” value [3] was “failed to generate colonies; also recorded: No colonies”.

In the case of “BmfBH3: mouse Bmf BH3 peptide residues 128-151, HRAEVQIARKLQCIADQFHRLHTQ”, the “binding preference among pro-survival proteins” value [1] is reported as “showed similar preferences”.

In the case of “H-PAELEVECATQLRRFGDELNFRQKLL-OH [Noxa (18-43) mt1]”, the “binding to Bcl-2” value [4] is reported as “remained weak”, the “fold tighter than wild-type peptide” value [5] is reported as “at least 17 fold” and the “increase in binding to Bcl-xL” value [5] is reported as “more than 20 fold”.

With “H-PAELEVECATQLRRIGDELNFRQKLL-OH [Noxa (18-43) mt3]” the “binding to Bcl-2” value [4] was “remained weak”, the IC50 [5, 10] was 0.11 µM and the “Mcl-1 binding” value [6] was “slightly improved”.

For “H-PAELEVECATQLRRIGDKLNFRQKLL-OH [Noxa (18-43) mt2]”, the “binding to Bcl-2” value [4] was “remained weak”, the “fold tighter than wild-type peptide” value [5] was “at least 90 fold” and the “increase in binding to Bcl-xL” value [5] was “more than 100 fold”.

With “Hrk: BH3-only protein Hrk expressed from retrovirus in MEFs” the “killing of MEFs” value [2] was “much less potent killers”.

In the case of “PAELEVECATQLRRFGDKLNFRQKLL [Noxa (18-43)]”, the “binding of A1 to immobilized peptide” value [7] is reported as “bound”, the “binding of Mcl-1 to immobilized peptide” value [8] is reported as “bound” and the IC50 ([4]; Bcl-2, one of 'the others') is reported as > 100 µM. The IC50 ([9]; Bcl-w, one of 'the others', read-out: IC50) was > 100 µM, the IC50 ([9]; competitor peptide vs immobilized wtBimBH3, read-out: IC50 for Bcl-w) was > 100 µM and the IC50 ([5]; Bcl-xL, b59-60 do not name the target, values match Table 4, read-out: IC50) was > 100 µM. For the same substance, the IC50 [5, 10] was > 100 µM, the “binding preference among pro-survival proteins” value ([1]; listed as Noxa BH3) was “selectively binds Mcl-1 and A1” and the “binding preference among pro-survival proteins” value ([1]; listed as NoxaBH3) was “highly selective for Mcl-1 and A1”. The “IC50” value ([1]; Mcl-1 and A1) was “nM range”.

For “PumaBH3: human Puma BH3 peptide residues 130-155, EEQWAREIGAQLRRMADDLNAQYERR”, the “binding preference among pro-survival proteins” value [1] was “comparable affinities for all the pro-survival proteins”.
